For orientation: IC50 means the concentration that gives 50% inhibition.

In brackets after ≈: the same amount, converted by molar mass.

1 molecule from ChEMBL document CHEMBL1139185, “Methyl spongoate, a cytotoxic steroid from the Sanya soft coral Spongodes sp” (Bioorg Med Chem Lett, 2007) can be followed below.

What all share (format): functional, cell-based
One assay deals with HT-29. Briefly: Cytotoxicity against human HT29 cells.
A further assay has as its system A549. Briefly: Cytotoxicity against human A549 cells.
In another assay the test system is P388. Briefly: Cytotoxicity against mouse P388 cells.
The test system of another assay is Bel-7402. Briefly: Cytotoxicity against human BEL-7402 cells.

As for `COC(=O)[C@H](CCCC(C)C)[C@H]1CC[C@H]2[C@@H]3CC[C@H]4CC(=O)C=C[C@]4(C)[C@H]3CC[C@]12C` [METHYL SPONGOATE], the IC50 in the assay on HT-29 turned out to be 5 µg/mL (≈ 11.7 µM); with A549 it was 5 µg/mL (≈ 11.7 µM); in the assay on P388, 3.8 µg/mL (≈ 8.86 µM); in the assay with Bel-7402 it was 0.14 µg/mL (≈ 0.327 µM).
